Key:
[1] = test system: CT-26 cells; experiment: Anti-tumor response in CT-26 tumor-bearing mice; format: in vivo, BALB/cAnN mice
Description: (§1) This experiment compared the anti-tumor response of tumor-bearing mice to treatment with one of three regimens: monotherapy with a murine anti-mouse PD-1 monoclonal antibody (anti-PD-1), monotherapy with Vorinostat and combination therapy with these two agents administered concurrently.
Tumor-bearing mice for this study were initiated by implanting 3×10^5 log-phase and sub-confluent CT-26 cells on the right lower dorsal flank of 7-8 week old female BALB/cAnN mice with an average body weight of 18 grams. When the mean tumor volume in these mice reached ˜100 cubic mm (60mm^3-150 mm^3) (FIG. 1(A)), the tumor-bearing mice were randomized to 4 treatment groups of 12 mice per group: (1) Isotype control+Vehicle control group;(2) anti-PD-1 +Vehicle control; (3) Vorinostat +Isotype control and; (4) anti-PD-1+Vorinostat. A monoclonal antibody of murine isotype IgG1 against murine PD-1 and isotype control were obtained from internal sources. The isotype control was a mouse monoclonal antibody specific for adenoviral hexon 25 and was of the isotype IgG1. […] Anti-PD-1 was administered to treatment groups 2 and 4 at 10 mg/kg i.p. every 5 days for each of 5 cycles. Vorinostat was administered to treatment groups 3 and 4 at 150 mg/kg every day for 27 days.

[2] = test system: RENCA cells; experiment: Anti-tumor response in RENCA tumor-bearing mice
Description: as §1
Tumor-bearing mice for this study were initiated by implanting 1×10^6 log-phase and sub-confluent RENCA cells on the right lower dorsal flank of 7-8 week old female BALB/cmice with an average body weight of 19 grams. When the mean tumor volume in these mice reached ˜100 cubic mm (65mm^3-140 mm^3) (FIG. 9(A)), the tumor-bearing mice were randomized to 4 treatment groups of 12 mice per group: (1) Isotype control +Vehicle control group;(2) Anti-PD-1 +Vehicle control; (3) Vorinostat+Isotype control and; (4) Anti-PD-1 +Vorinostat. A monoclonal antibody of murine isotype IgG1 against murine PD-1 and isotype control were obtained from internal sources. The isotype control was a mouse monoclonal antibody specific for adenoviral hexon 25 and was of the isotype IgG1. The formulations for each reagent was as follows: Isotype contro1:75 mM NaCl, 10 mM sodium phosphate, 3% sucrose, pH7.3; anti-PD-1: 20 mM sodium acetate, 7% sucrose, pH5.5; and Vorinostat vehicle: 0.5% HPC (hydroxypropylcellulose) with 0.002% SDS (sodium dodecyl sulfate) in sterile water. Anti-PD-1 was administered to treatment groups 2 and 4 at 5 mg/kg i.p. every 5 days for each of 5 cycles. Vorinostat was administered to treatment groups 3 and 4 at 150 mg/kg every day for 29 days.

O=C(CCCCCCC(=O)Nc1ccccc1)NO [Vorinostat, suberoylanilide hydroxamic acid]
effect of Vorinostat on anti-PD-1 anti-tumor activity in the combination treatment arm [1]: did not demonstrate antagonistic effects | complete regressions (CR) ([1]; 12 per group, measured through Day 29, anti-PD-1 10 mg/kg i.p. every 5 days x5, Vorinostat 150 mg/kg every day for 27 days): No CRs | survival ([1]; at Day 30, FIG. 8(B)): 10% | effect of Vorinostat on anti-PD-1 anti-tumor activity in the combination treatment arm [2]: did not demonstrate antagonistic effects | survival ([2]; at Day 30, FIG. 9(B)): 23% | complete regressions (CRs) ([2]; monotherapy arms, measured through Day 29): No CRs

Reference: patent publication US20180044418A1, “COMBINATION OF A PD-1 ANTAGONIST AND VORINOSTAT FOR TREATING CANCER” (Merck Sharp & Dohme Corp., priority 2016, published 2018)
